Measured values reported in patent US4342870A, “Novel 3-(1-piperidinylalkyl)-4H-pyrido[1,2-a]pyrimidin-4-one derivatives” (Janssen Pharmaceutica N.V., priority 1980, dated 1982).

Columns and labels:
[1] = test system: effect of serotonin on the caudal artery of the rat; assay: Antagonistic activity on the effect of serotonin on the caudal artery of the rat (Test 1); details: minimal concentration reducing amplitude of serotonin (40 ng/ml) contraction to at least 50% of normal; rat caudal artery strips; 5 min
Experimental: Test 1: Anta gonistic activity on the effect of serotonin on the caudal artery of the rat.
Caudal arteries from fasted male rats (210-235 g) are used in the test. Two helical strips having a length of 5-6 cm and a width of 2 mm are obtained from each artery and mounted vertically in a 100 ml organ bath containing an oxygenated Krebs-Henseleit solution. Submaximal contractions of the arterial strips are produced by adding single doses of serotonin (40 ng/ml) to the organ bath for 2 minutes with each time an interval of 10 minutes. The amplitude of the contraction is measured before and 5 minutes after adding the drug. After washing out, the agonist is added again three times in order to see whether the contraction is restored and normalized. […] In this connection the ED50 -values are the minimal concentrations of the concerned drugs which reduce the amplitude of the contraction to at least 50% of its normal value.

[2] = test system: gastric lesions induced by compound 48/80; assay: Gastric lesion test: lesions induced by compound 48/80 (Test 2); format: in vivo, rat (male, Wistar inbred strain); details: Rattus norvegicus, po
Experimental: Test 2: Effects in gastric lesion tests
The shock, followed by dead, can be avoided if the rats are pretreated with a classical H 1 antagonist.
Male rats of a Wistar inbred strain, weighing 200-250 g, are starved overnight, water being available ad libitum. The test compounds are administered orally as a solution or as a suspension in aqueous medium. A control rat and a "blank" rat […]. One hour later 5-[4-(diphenylmethyl)-1-piperazinylmethyl]-1-methyl-1H-benzimidazole-2-methanol is administered subcutaneously to all rats at the dose of 2.5 mg/kg. […] Four hours after the intravenous injection of compound 48/80, the rats are decapitated and the stomachs are removed. Subsequently the stomachs are inspected for distension and contents (blood, fluid, food) and thoroughly rinsed. The macroscopic lesions are secured from 0 to +++, 0 corresponding to complete absence of visible lesions and the highest score corresponding to reddish rough patches covering more than half the glandular area.

[3] = test system: rats injected with compound 48/80; details: known serotonin antagonists; cited from earlier work

Structure (SMILES)	Caudal Artery ED50 [1]	ED50 [2]	prevention of cyanosis of ears and extremities, of lesions in the glandular area of the stomach and of abnormal gastric distension [3]
Cc1cc(C)n2c(=O)c(CCN3CCC(C(=O)c4ccc(F)cc4)CC3)c(C)nc2c1 [6-CH3 8-CH3 CH2CH2 H C6 H4.4F]	0.16 ng/mL	0.02 mg/kg	–
Cc1cc(C)n2c(=O)c(CCN3CCC(c4c[nH]c5ccccc45)CC3)c(C)nc2c1 [6-CH3 8-CH3, 3-[2-[4-(1H-indol-3-yl)-1-piperidinyl]ethyl]-2,6,8-trimethyl-4H-pyrido[1,2-a]pyrimidin-4-one]	0.16 ng/mL	0.63 mg/kg	–
Cc1nc2cccc(C)n2c(=O)c1CCN1CCC(C(=O)c2ccc(F)cc2)CC1 [H 6-CH3 CH2CH2 H C6 H4 .4F]	< 0.63 ng/mL	2.5 mg/kg	–
Cc1nc2cccc(C)n2c(=O)c1CCN1CCC(c2c[nH]c3ccccc23)CC1 [H 6-CH3, 3-[2-[4-(1H-indol-3-yl)-1-piperidinyl]ethyl]-2,6-dimethyl-4H-pyrido[1,2-a]pyrimidin-4-one]	0.08 ng/mL	0.16 mg/kg	–
Cc1nc2ccc(Br)cn2c(=O)c1CCN1CCC(C(=O)c2ccc(F)cc2)CC1 [H 7-Br CH2CH2 H C6 H4 .4F]	0.31 ng/mL	< 0.63 mg/kg	–
Cc1nc2ccc(Br)cn2c(=O)c1CCN1CCC(c2c[nH]c3ccccc23)CC1 [H 7-Br, 7-bromo-3-[2-[4-(1H-indol-3-yl)-1-piperidinyl]ethyl]-2-methyl-4H-pyrido[1,2-a]pyrimidin-4-one]	0.31 ng/mL	1.25 mg/kg	–
Cc1ccc2nc(C)c(CCN3CCC(C(=O)c4ccc(F)cc4)CC3)c(=O)n2c1 [H 7-CH3 CH2CH2 H C6 H4.4F]	0.31 ng/mL	0.02 mg/kg	–
Cc1ccc2nc(C)c(CCN3CCC(c4c[nH]c5ccccc45)CC3)c(=O)n2c1 [H 7-CH3, 3-[2-[4-(1H-indol-3-yl)-1-piperidinyl]ethyl]-2,7-dimethyl-4H-pyrido-[1,2-a]pyrimidin-4-one]	0.31 ng/mL	0.63 mg/kg	–
Cc1nc2ccc(Cl)cn2c(=O)c1CCN1CCC(C(=O)c2ccc(F)cc2)CC1 [H 7-Cl CH2CH2 H C6 H4.4F]	1.25 ng/mL	0.01 mg/kg	–
Cc1nc2ccc(Cl)cn2c(=O)c1CCN1CCC(c2c[nH]c3ccccc23)CC1 [H 7-Cl, 7-chloro-3-[2-[4-(1H-indol-3-yl)-1-piperidinyl]ethyl]-2-methyl-4H-pyrido[1,2-a]pyrimidin-4-one]	0.63 ng/mL	0.63 mg/kg	–
Cc1ccn2c(=O)c(CCN3CCC(C(=O)c4ccc(F)cc4)CC3)c(C)nc2c1 [H 8-CH3 CH2CH2 H C6 H4 .4F]	< 2.5 ng/mL	0.04 mg/kg	–
Cc1ccn2c(=O)c(CCN3CCC(c4c[nH]c5ccccc45)CC3)c(C)nc2c1 [H 8-CH3, 3-[2-[4-(1H-indol-3-yl)-1-piperidinyl]ethyl]-2,8-dimethyl-4H-pyrido[1,2-a]pyrimidin-4-one]	0.31 ng/mL	0.04 mg/kg	–
Cc1nc2ccccn2c(=O)c1CCN1CCC(CO)(C(=O)c2ccc(F)cc2)CC1.Cl.Cl.O [H H CH2CH2 CH2 OH C6 H4 .4F, 3-[2-[4-(4-fluorobenzoyl)-4-(hydroxymethyl)-1-piperidinyl]ethyl]-2-methyl-4H-pyrido[1,2-a]pyrimidin-4-one dihydrochloride monohydrate]	–	< 0.63 mg/kg	–
Cc1nc2ccccn2c(=O)c1CCN1CCC(C)(C(=O)c2ccc(F)cc2)CC1 [H H CH2CH2 CH3 C6 H 4 .4F]	0.63 ng/mL	0.16 mg/kg	–
Cc1nc2ccccn2c(=O)c1CCN1CCC(C(=O)c2cccs2)CC1 [H H CH2CH2 H 2-thienyl]	1.3 ng/mL	–	–
Cc1nc2ccccn2c(=O)c1CCN1CCC(C(=O)c2ccc(F)cc2)CC1 [H H CH2CH2 H C6 H4 .4F, 3-[2-[4-(4-fluorobenzoyl)-1-piperidinyl]ethyl]-2-methyl-4H-pyrido[1,2-a]pyrimidin-4-one]	0.32 ng/mL	0.016 mg/kg	–
Cc1ccccc1C(=O)C1CCN(CCc2c(C)nc3ccccn3c2=O)CC1 [H H CH2CH2 H C6 H4.2CH3]	1.25 ng/mL	–	–
Cc1nc2ccccn2c(=O)c1CCN1CCC(C(=O)c2ccccc2)CC1 [H H CH2CH2 H C6 H5, 3-[2-(4-benzoyl-1-piperidinyl)ethyl]-2-methyl-4H-pyrido[1,2-a]pyrimidin-4-one]	0.63 ng/mL	0.63 mg/kg	–
Cc1nc2ccccn2c(=O)c1CCN1CCC(O)(C(=O)c2ccc(F)cc2)CC1 [H H CH2CH2 OH C6 H4 .4F]	0.31 ng/mL	2.5 mg/kg	–
Cc1nc2ccccn2c(=O)c1CC(C)N1CCC(C(=O)c2ccc(F)cc2)CC1 (stereo not shown) [H H drawing 24 H C6 H4 .4F]	–	2.5 mg/kg	–
Cc1nc2ccccn2c(=O)c1CCN1CCC(c2c[nH]c3ccccc23)CC1 [H H, 3-[2-[4-(1H-indol-3-yl)-1-piperidinyl]ethyl]-2-methyl-4H-pyrido[1,2-a]pyrimidin-4-one]	0.14 ng/mL	0.08 mg/kg	–
CN(C)CCCSc1ccccc1NC(=O)/C=C/c1ccccc1 [cinanserin]	–	–	prevent completely
CN1CCC(=C2c3ccccc3C=Cc3ccccc32)CC1 [cyproheptadine]	–	–	prevent completely
CN1C[C@H](CNC(=O)OCc2ccccc2)C[C@@H]2c3cccc4c3c(cn4C)C[C@H]21 [metergoline]	–	–	prevent completely
CC[C@@H](CO)NC(=O)[C@@H]1C=C2c3cccc4c3c(cn4C)C[C@H]2N(C)C1 [methysergide]	–	–	prevent completely
CN1CCN2c3ccccc3Cc3ccccc3C2C1 (stereo not shown) [mianserin]	–	–	prevent completely
NC(=O)C1(N2CCCCC2)CCN(CCCC(=O)c2ccc(F)cc2)CC1 [pipamperone]	–	–	prevent completely
CN1CCC(=C2c3ccccc3CCc3sccc32)CC1 [pizotifen]	–	–	prevent completely
O=C(CCCN1CCC2(CC1)C(=O)NCN2c1ccccc1)c1ccc(F)cc1 [spiperone]	–	–	prevent completely
